Here are results for 17 compounds from PMC11905336, “Pyrrole‐Tethered Bisbenzoxazole Derivatives: Apoptosis‐Inducing Agents Targeting Breast Cancer Cells” (Chemical Biology & Drug Design, 2025).

One assay concerns MCF‐7 cell lines. The experiment in a line: MTT assay, cytotoxicity on MCF-7 cells. The settings on record: Homo sapiens, MTT. Format: cell-based, human. On the procedure:
The cytotoxic effects of PTB derivatives on MCF‐7 breast cancer cells were evaluated using the MTT assay at various concentrations (100 nM, 1 μM, 10 μM, 50 μM, and 100 μM).
(§1) The human dermal fibroblast (HDFa) and human breast cancer cells (MCF‐7) were obtained from the American Type Culture Collection (ATCC; Manassas, VA, USA). Cells were cultured in RPMI medium (MCF‐7) and DMEM medium (HDFa) was supplemented with 10% FBS, 1% penicillin–streptomycin, 1% amphotericin, and 2.5% L‐glutamine at 37°C in a 5% CO2 incubator.
MTT Method. The MTT method is used to detect and quantify living organisms cultured with the method colorimetrically. This method relies on intact mitochondria cleaving the tetrazolium ring of the MTT dye. The MTT substance is absorbed and reduced to a colorful, water‐insoluble formazan by a mitochondria‐dependent reaction. Cell viability is measured based on the MTT reduction property, and the density of dye obtained from MTT analysis indicates the number of viable cells. In this study, cell viability was assessed using the MTT (0.5 mg/mL) solution that was added to each well. […] After adding properties to cultures, they were kept at 37°C for 24 h and overnight. Then, at 48 and 72 h after applying the molecules, 10 μL of MTT was added to each well and incubated under similar conditions for 4 h. Absorbance spectrophotometry was performed at a wavelength of 570 nm using the IC50 = [(control absorbents‐sample absorbents)/control absorbents] × 100 calculation method (Khorsandi et al. [2017]).
(In general: Tetrazolium assays rely on reduction of a dye to a coloured formazan, in cell work by metabolically active cells.)

The subject of another assay is HDFa cell lines. In words: Cytotoxicity on healthy dermal fibroblasts (MTT / xCELLigence real-time cell analysis). It is filed as cell-based. The settings on record: Homo sapiens. On the procedure:
The cytotoxicity of these derivatives was also assessed in dermal fibroblast cells using xCELLigence analysis as detailed in the Supporting Information.
as §1
xCELLigence Real‐Time Cell Analysis. The xCELLigence system (Real‐Time Cell Analyzer (RTCA) Dual Plate (DP) (Roche Diagnostics GmbH, Penzberg)) was used for real‐time monitoring of cell viability without the need for labeling. A total of 1 × 10^4 HDFa cells were seeded into each well of the E‐plate, and the cell proliferation curve was monitored for 24 h. […] The Cell Index (CI) value was automatically measured every hour for each well using RTCA Software (version 1.2.1) (Yetkin et al. [2021]; Yıldırım et al. [2022]).

Where [1] appears, read: MCF7, read-out: IC50 (μM) for MCF‐7 cell lines, 48 h.
Setting [2] is: MCF7, 24 h, read-out: IC50 (μM) for MCF‐7 cell lines, 24 h.
[3] abbreviates: MCF7, 72 h, read-out: IC50 (μM) for MCF‐7 cell lines, 72 h.
Setting [4] is: 24 h, values greater than 100 not calculated, read-out: IC50 (μM) for HDFa cell lines, 24 h.
Where [5] appears, read: 72 h, values greater than 100 not calculated, read-out: IC50 (μM) for HDFa cell lines, 72 h.
[6] abbreviates: read-out: IC50 (μM) for HDFa cell lines, 48 h, values greater than 100 not calculated.

Read-outs that look alike come from different tables or passages of the source.

With `COc1ccc2oc(-c3ccc(-c4nc5cc(Cl)ccc5o4)[nH]3)nc2c1` [Compound B17, 5‐Chloro‐2‐(5‐(5‐Methoxybenzo[d]Oxazol‐2‐Yl)‐1H‐Pyrrol‐2‐Yl)benzo[d]Oxazole], the IC50 is 3.44 ± 1.12 µM in the assay on MCF‐7 cell lines (setting [1]); 3.7 ± 1.12 µM with MCF‐7 cell lines (setting [2]); 3.03 ± 0.76 µM in the assay on MCF‐7 cell lines (setting [3]); 98.3 ± 1.57 µM with HDFa cell lines (setting [4]); 99 ± 1 µM in the assay with HDFa cell lines (setting [5]); 99 ± 1.96 µM in the assay on HDFa cell lines (setting [6]).

Consider `Cc1ccc2nc(-c3ccc(-c4nc5ccccc5o4)[nH]3)oc2c1` [Compound B7, 2‐(5‐(Benzo[d]Oxazol‐2‐Yl)‐1H‐Pyrrol‐2‐Yl)‐6‐Methylbenzo[d]Oxazole], for which the IC50 with MCF‐7 cell lines (setting [1]) was 4.68 ± 0.98 µM; with MCF‐7 cell lines (setting [2]) it was 4.08 ± 1.23 µM; with MCF‐7 cell lines (setting [3]), 2.53 ± 1.82 µM; in the assay with HDFa cell lines (setting [4]) it was 97.3 ± 1.06 µM; with HDFa cell lines (setting [5]), 100 ± 1.03 µM; with HDFa cell lines (setting [6]), 98.5 ± 2 µM.

`Cc1ccc2oc(-c3ccc(-c4nc5ccccc5o4)[nH]3)nc2c1` [Compound B6, 2‐(5‐(Benzo[d]Oxazol‐2‐Yl)‐1H‐Pyrrol‐2‐Yl)‐5‐Methylbenzo[d]Oxazole]: the IC50 was 3.09 ± 1.23 µM in the assay on MCF‐7 cell lines (setting [1]); 2.81 ± 0.76 µM in the assay on MCF‐7 cell lines (setting [2]); 3.02 ± 0.89 µM with MCF‐7 cell lines (setting [3]); 98.5 ± 1.02 µM with HDFa cell lines (setting [4]); 99.1 ± 1.73 µM in the assay with HDFa cell lines (setting [5]); 99 ± 1.76 µM in the assay with HDFa cell lines (setting [6]).

Turning to `COC(=O)c1ccc2nc(-c3ccc(-c4nc5cc(Cl)ccc5o4)[nH]3)oc2c1` [Compound B20, Methyl 2‐(5‐(5‐Chlorobenzo[d]Oxazol‐2‐Yl)‐1H‐Pyrrol‐2‐Yl)benzo[d]Oxazole‐6‐Carboxylate], the half-maximal inhibitory concentration (IC50) in the assay on MCF‐7 cell lines (setting [1]) was 3.25 ± 0.97 µM; with MCF‐7 cell lines (setting [2]) it was 2.97 ± 1.13 µM; in the assay on MCF‐7 cell lines (setting [3]) it was 3.07 ± 2.96 µM; in the assay on HDFa cell lines (setting [4]) it was 95.4 ± 1.94 µM; in the assay on HDFa cell lines (setting [5]) it was at least 100 µM; in the assay with HDFa cell lines (setting [6]) it was 97.3 ± 1.43 µM.

Take `Cc1ccc2nc(-c3ccc(-c4nc5cc(Cl)ccc5o4)[nH]3)oc2c1` [Compound B19, 5‐Chloro‐2‐(5‐(6‐Methylbenzo[d]Oxazol‐2‐Yl)‐1H‐Pyrrol‐2‐Yl)benzo[d]Oxazole]: the IC50 in the assay with MCF‐7 cell lines (setting [1]) was 2.97 ± 1.12 µM; with MCF‐7 cell lines (setting [2]), 2.83 ± 0.87 µM; with MCF‐7 cell lines (setting [3]), 3.42 ± 1.12 µM; with HDFa cell lines (setting [4]), 97.3 ± 1.34 µM; with HDFa cell lines (setting [5]) it was 99.82 ± 0.89 µM; in the assay on HDFa cell lines (setting [6]), 97.3 ± 1.2 µM.

As for `Cc1ccc2oc(-c3ccc(-c4nc5cc(Cl)ccc5o4)[nH]3)nc2c1` [Compound B13, 5‐Chloro‐2‐(5‐(5‐Methylbenzo[d]Oxazol‐2‐Yl)‐1H‐Pyrrol‐2‐Yl)benzo[d]Oxazole], the IC50 in the assay with MCF‐7 cell lines (setting [1]) was 3.6 ± 0.56 µM; in the assay with MCF‐7 cell lines (setting [2]) it was 3.43 ± 1.56 µM; with MCF‐7 cell lines (setting [3]), 3.28 ± 1.36 µM; in the assay on HDFa cell lines (setting [4]) it was at least 100 µM; with HDFa cell lines (setting [5]), at least 100 µM; with HDFa cell lines (setting [6]), at least 100 µM.

`Clc1ccc2oc(-c3ccc(-c4nc5cc(Cl)ccc5o4)[nH]3)nc2c1` [Compound B5, 2,5‐Bis(5‐Chlorobenzo[d]Oxazol‐2‐Yl)‐1H‐Pyrrole]: the IC50 in the assay with MCF‐7 cell lines (setting [1]) was 2.69 ± 2.01 µM; in the assay with MCF‐7 cell lines (setting [2]) it was 3.73 ± 1.05 µM; in the assay with MCF‐7 cell lines (setting [3]), 3.28 ± 1.32 µM; in the assay on HDFa cell lines (setting [4]) it was 95.3 ± 1.92 µM; in the assay on HDFa cell lines (setting [5]), at least 100 µM; in the assay on HDFa cell lines (setting [6]), 97.5 ± 2.93 µM.

As to `COc1ccc2oc(-c3ccc(-c4nc5ccc(C)cc5o4)[nH]3)nc2c1` [Compound B15, 5‐Methoxy‐2‐(5‐(6‐Methylbenzo[d]Oxazol‐2‐Yl)‐1H‐Pyrrol‐2‐Yl)benzo[d]Oxazole], the IC50 in the assay with MCF‐7 cell lines (setting [1]) was 8.09 ± 2.06 µM; in the assay on MCF‐7 cell lines (setting [2]), 2.49 ± 1.64 µM; with MCF‐7 cell lines (setting [3]) it was 2.53 ± 1.56 µM; in the assay on HDFa cell lines (setting [4]) it was at least 100 µM; with HDFa cell lines (setting [5]), at least 100 µM; in the assay on HDFa cell lines (setting [6]) it was at least 100 µM.

Consider `Cc1ccc2nc(-c3ccc(-c4nc5ccc(C)cc5o4)[nH]3)oc2c1` [Compound B3, 2,5‐Bis(6‐Methylbenzo[d]Oxazol‐2‐Yl)‐1H‐Pyrrole], for which the IC50 with MCF‐7 cell lines (setting [1]) was 4.38 ± 0.98 µM; in the assay on MCF‐7 cell lines (setting [2]), 3.3 ± 1.96 µM; in the assay on MCF‐7 cell lines (setting [3]), 3.53 ± 0.65 µM; in the assay on HDFa cell lines (setting [4]), at least 100 µM; in the assay on HDFa cell lines (setting [5]), at least 100 µM; in the assay on HDFa cell lines (setting [6]), at least 100 µM.

`c1ccc2oc(-c3ccc(-c4nc5ccccc5o4)[nH]3)nc2c1` [Compound B1, 2,5‐Bis(Benzo[d]Oxazol‐2‐Yl)‐1H‐Pyrrole]: the IC50 is 2.96 ± 1.02 µM with MCF‐7 cell lines (setting [1]); 3.89 ± 1.15 µM in the assay with MCF‐7 cell lines (setting [2]); 3.13 ± 1.12 µM with MCF‐7 cell lines (setting [3]); 89.4 ± 1.23 µM with HDFa cell lines (setting [4]); at least 100 µM in the assay on HDFa cell lines (setting [5]); 89.93 ± 0.43 µM with HDFa cell lines (setting [6]).

Turning to `Clc1ccc2oc(-c3ccc(-c4nc5ccccc5o4)[nH]3)nc2c1` [Compound B9, 2‐(5‐(Benzo[d]Oxazol‐2‐Yl)‐1H‐Pyrrol‐2‐Yl)‐5‐Chlorobenzo[d]Oxazole], the IC50 with MCF‐7 cell lines (setting [1]) is 3.23 ± 0.63 µM; in the assay with MCF‐7 cell lines (setting [2]), 3.84 ± 1.12 µM; in the assay on MCF‐7 cell lines (setting [3]), 2.77 ± 1.23 µM; in the assay with HDFa cell lines (setting [4]), 95.4 ± 1.29 µM; in the assay on HDFa cell lines (setting [5]), 101 ± 1.38 µM; in the assay on HDFa cell lines (setting [6]), 97.5 ± 1.99 µM.

With `Cc1ccc2oc(-c3ccc(-c4nc5ccc(C)cc5o4)[nH]3)nc2c1` [Compound B11, 6‐Methyl‐2‐(5‐(5‐Methylbenzo[d]Oxazol‐2‐Yl)‐1H‐Pyrrol‐2‐Yl)benzo[d]Oxazole], the IC50 was 3.49 ± 0.68 µM in the assay on MCF‐7 cell lines (setting [1]); 4.55 ± 0.09 µM in the assay on MCF‐7 cell lines (setting [2]); 2.44 ± 1.19 µM in the assay on MCF‐7 cell lines (setting [3]); 95.3 ± 1.65 µM in the assay with HDFa cell lines (setting [4]); 99.4 ± 1.23 µM in the assay on HDFa cell lines (setting [5]); 97.4 ± 1.47 µM in the assay with HDFa cell lines (setting [6]).

In the case of `COC(=O)c1ccc2nc(-c3ccc(-c4nc5ccc(C)cc5o4)[nH]3)oc2c1` [Compound B16, Methyl 2‐(5‐(6‐Methylbenzo[d]Oxazol‐2‐Yl)‐1H‐Pyrrol‐2‐Yl)benzo[d]Oxazole‐6‐Carboxylate], the IC50 is 2.82 ± 2.14 µM in the assay on MCF‐7 cell lines (setting [1]); 3.03 ± 1.35 µM with MCF‐7 cell lines (setting [2]); 2.93 ± 1.02 µM with MCF‐7 cell lines (setting [3]); 95.3 ± 1.03 µM with HDFa cell lines (setting [4]); 99.3 ± 1.07 µM with HDFa cell lines (setting [5]); 97.3 ± 1.09 µM in the assay with HDFa cell lines (setting [6]).

Consider `COc1ccc2oc(-c3ccc(-c4nc5cc(C)ccc5o4)[nH]3)nc2c1` [Compound B12, 5‐Methoxy‐2‐(5‐(5‐Methylbenzo[d]Oxazol‐2‐Yl)‐1H‐Pyrrol‐2‐Yl)benzo[d]Oxazole], for which the IC50 in the assay with MCF‐7 cell lines (setting [1]) is 3.49 ± 0.46 µM; in the assay on MCF‐7 cell lines (setting [2]), 3.88 ± 0.23 µM; in the assay on MCF‐7 cell lines (setting [3]), 3.11 ± 0.87 µM; in the assay with HDFa cell lines (setting [4]) it was at least 100 µM; with HDFa cell lines (setting [5]), at least 100 µM; in the assay with HDFa cell lines (setting [6]) it was at least 100 µM.

As to `Cc1ccc2oc(-c3ccc(-c4nc5cc(C)ccc5o4)[nH]3)nc2c1` [Compound B2, 2,5‐Bis(5‐Methylbenzo[d]Oxazol‐2‐Yl)‐1H‐Pyrrole], the IC50 was 4.5 ± 0.23 µM in the assay with MCF‐7 cell lines (setting [1]); 4.6 ± 2.2 µM in the assay with MCF‐7 cell lines (setting [2]); 2.06 ± 1.67 µM in the assay on MCF‐7 cell lines (setting [3]); 96.3 ± 1.03 µM in the assay with HDFa cell lines (setting [4]); 99.3 ± 1.03 µM with HDFa cell lines (setting [5]); 94.3 ± 1.56 µM in the assay on HDFa cell lines (setting [6]).

`COC(=O)c1ccc2nc(-c3ccc(-c4nc5ccccc5o4)[nH]3)oc2c1` [Compound B10, Methyl 2‐(5‐(Benzo[d]Oxazol‐2‐Yl)‐1H‐Pyrrol‐2‐Yl)benzo[d]Oxazole‐6‐Carboxylate]: the IC50 in the assay on MCF‐7 cell lines (setting [1]) is 2.88 ± 0.45 µM; in the assay with MCF‐7 cell lines (setting [2]), 3.66 ± 1.34 µM; in the assay with MCF‐7 cell lines (setting [3]), 2.44 ± 2.11 µM; in the assay with HDFa cell lines (setting [4]), 97.2 ± 1.76 µM; in the assay with HDFa cell lines (setting [5]), 99.9 ± 1.65 µM; with HDFa cell lines (setting [6]), 99.3 ± 1.34 µM.

Regarding `COc1ccc2oc(-c3ccc(-c4nc5cc(OC)ccc5o4)[nH]3)nc2c1` [Compound B4, 2,5‐Bis(5‐Methoxybenzo[d]Oxazol‐2‐Yl)‐1H‐Pyrrole], the IC50 with MCF‐7 cell lines (setting [1]) was 4.19 ± 1.86 µM; in the assay with MCF‐7 cell lines (setting [2]) it was 4.56 ± 1.56 µM; in the assay on MCF‐7 cell lines (setting [3]) it was 3.11 ± 0.56 µM; in the assay on HDFa cell lines (setting [4]) it was 97.3 ± 1.34 µM; with HDFa cell lines (setting [5]) it was at least 100 µM; with HDFa cell lines (setting [6]), 99.23 ± 0.32 µM.

What is called IC50 is the midpoint of a concentration-inhibition curve.
